One assay deals with HSV-1. The experiment in a line: microbe, parasite or virus in culture. The class given is cell-based. The method, then: Cells with ~90% confluence in 48-well plates were infected by absorbing virus (~100 PFU/well) for 1 h in 100 µL growth medium followed by adding 200 µL culture medium containing DMSO vehicle or serially diluted peptides or Acyclovir (Tocris Bioscience-Fisher Scientific) to each well of the plate. DMSO was maintained at 1% throughout the treatment. Cells were subsequently fixed and stained with 300 µL PBS containing 4% formaldehyde and 0.2% crystal violet overnight at room temperature. HSV-1 plaques were quantified at ~55 h post-infection of Vero cells. VV (WR strain) infection of BSC-1 cells was analyzed for plaque formation after 24 h. The plaque reduction assays were performed in duplicate and independently repeated twice. Cells were stained, and plaques counted under a dissecting microscope. Data were plotted on the GraphPad Prism.
Standard viral plaque reduction assays were conducted in Vero cells to determine if any of the five stapled peptides (S-pep1/3/4/7/8) that were able to block processive DNA synthesis, could also block HSV-1 infection. To minimize possible interference of HSV-1 cell attachment and entry by the peptides, cells were first infected by absorbing the virus for 1 h, followed by treatment with peptides at serial dilutions. […] The EC50 values of both S-pep3 and S-pep8 were approximately 100 µM (FIG. 15C and FIG. 15F). Additionally, S-pep4 was toxic at 12.5 µM, which precluded further optimization.

Assay [1] addresses HSV-1 UL30 DNA Polymerase and UL42 Processivity Factor (Human herpesvirus 1, UniProt P10226). The assay is described as follows: In vitro processive DNA synthesis assay (ELISA-based Rapid Plate Assay). The class given is biochemical. As to conditions: for IC50, µM* (HSV1 UL30+UL42): inhibition of HSV-1 processive DNA synthesis in vitro by UL30 and UL42. The method, then:
The assay was performed by the enzyme-linked immunosorbent assay (ELISA)-based Rapid Plate Assay (J. Virol. Methods 2000, 88:219-225; Methods Mol. Biol. 2005, 292:481-492; J. Med. Chem. 2008, 51:6563-6570), using in vitro translated viral DNA polymerase and processivity factor.
Briefly, the assay comprised a 100-nucleotide single-stranded DNA template that has biotin covalently linked to the 5′ end. The biotin-labeled oligonucleotide template was immobilized onto streptavidin, which was coated onto each well of a micro-titer plate. An oligonucleotide primer (15mer) was annealed to the 3′ end of the biotin-labeled DNA template. HSV-1 UL-30 and HSV-1 UL-42 (either in vitro translated or purified) were added and incubated with serial dilutions of the stapled peptides. DNA synthesis was measured by direct incorporation of the 4 dNTPs as well as the signal nucleotide, digoxigenin-dUTP (1:5, dig-dUTP:dTTP). A peroxidase-conjugated anti-digoxigenin antibody that recognizes the newly synthesized DNA generated a colorimetric reaction that was quantified with a plate reader at 405 nm.
In certain non-limiting embodiments, the shown staples (or tethers), which provide rigidity, had linked-spacing of one full turn (i,i+4) or two full turns (i,i+7) of the helix to stay in helical register (3.6 amino acids/turn). In other embodiments, the staple was on the solvation side of the helix. Residues on the opposite side contact the PF target protein UL42. These UL42 residues are D63, R64 and K289 (FIGS. 13A-13C). Hydrogen bonds between residues of UL42 and C-Pol are shown as dotted lines. The IC50 values recited herein were quantitated using the assay described in U.S. Pat. No. 6,204,028, which is incorporated herein in its entirety by reference (FIG. 14).
A general note: An ELISA detects its analyte on a solid surface through an enzyme-linked reagent.

Assay [2] has as its target T1, HSV-1 Processivity Factor (UL42) (HSV-1 (strain KOS), UniProt P10226 1-488).
T1 sequence: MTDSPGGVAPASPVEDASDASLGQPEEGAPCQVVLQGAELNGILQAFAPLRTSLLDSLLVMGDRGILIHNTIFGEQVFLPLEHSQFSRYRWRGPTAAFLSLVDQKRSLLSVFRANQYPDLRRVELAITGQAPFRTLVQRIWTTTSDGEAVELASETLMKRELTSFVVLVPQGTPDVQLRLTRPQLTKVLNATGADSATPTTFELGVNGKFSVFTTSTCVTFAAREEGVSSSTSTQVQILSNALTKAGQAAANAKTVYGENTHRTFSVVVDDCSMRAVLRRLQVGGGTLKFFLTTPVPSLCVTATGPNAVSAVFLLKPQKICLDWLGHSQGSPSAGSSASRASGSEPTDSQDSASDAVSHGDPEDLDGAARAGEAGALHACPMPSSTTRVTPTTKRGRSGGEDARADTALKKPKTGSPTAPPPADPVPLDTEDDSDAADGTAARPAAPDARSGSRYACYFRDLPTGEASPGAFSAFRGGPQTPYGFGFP
The assay is described as follows: cell-based or functional assay.

Like-named read-outs stand apart in the source and are kept apart here. Positions of bridges follow the written chain, without caps; N, C: chain ends. Non-standard residues stand in square brackets, D forms with d. Residues, ends and D or L forms follow the SMILES beside them. No end group written: not given here. S5 = C=CCCC[C@](C)(N)C(=O)O

Usually EC50 stands for the midpoint of the concentration-response curve. As a reminder, the IC50 is the concentration that gives 50% inhibition.

As for `Nc1nc2c(ncn2COCCO)c(=O)[nH]1` [Acyclovir, reference compound], in the assay on HSV-1 (Human alphaherpesvirus 1, Vero cells, peptides added after 1 h virus absorption, plaques counted at ~55 h, read-out: EC50, inhibition of HSV-1 plaque formation), the concentration giving a half-maximal response (EC50) amounted to 0.81 µM. The molecule `CSCC[C@H](NC(=O)[C@H](CCCNC(=N)N)NC(=O)[C@H](CCCNC(=N)N)NC(=O)[C@@H](NC(=O)[C@H](CCC(=O)O)NC(C)=O)[C@@H](C)O)C(=O)N[C@@H](CC(C)C)C(=O)N[C@@H](Cc1c[nH]cn1)C(=O)N[C@@H](CCCNC(=N)N)C(=O)N[C@@H](C)C(=O)N[C@@H](Cc1ccccc1)C(=O)N[C@@H](CC(=O)O)C(=O)N[C@H](C(=O)N[C@@H](CC(C)C)C(=O)N[C@@H](C)C(=O)O)[C@@H](C)O` [N-pep, Ac-ETRRMLHRAFDTLA, reference compound] had an EC50 with HSV-1 (1 h) greater than 200 µM. The molecule further returned an IC50 in assay [1] greater than 200 µM. Also, the “IC50, µM* (HSV1 UL30+UL42)” value in assay [1] (listed as Non-stapled) was “no inhibition”; in assay [1] (listed as native (unstapled) C-Pol peptide) it was “fails to inhibit”.

Turning to `CC(=O)N[C@@]1(C)CCCC=CCCC[C@@](C)(C(=O)N[C@@H](CC(C)C)C(=O)N[C@@H](Cc2c[nH]cn2)C(=O)N[C@@H](CCCNC(=N)N)C(=O)N[C@@H](C)C(=O)N[C@@H](Cc2ccccc2)C(=O)N[C@@H](CC(=O)O)C(=O)N[C@H](C(=O)N[C@@H](CC(C)C)C(=O)N[C@@H](C)C(=O)O)[C@@H](C)O)NC(=O)[C@H](CCCNC(=N)N)NC(=O)[C@H](CCCNC(=N)N)NC(=O)[C@H]([C@@H](C)O)NC1=O` [S-pep1, Ac-XTRRXLHRAFDTLA] (Ac-[S5]TRR[S5]LHRAFDTLA-OH; staple 1-5; C-terminus assumed), in the assay with HSV-1 (1 h), the concentration giving a half-maximal response (EC50) was 43 µM. In addition, the “IC50, µM* (HSV1 UL30+UL42)” value in assay [1] is recorded as “successfully inhibits”. `CC(=O)N[C@@]1(C)CCCC=CCCC[C@@](C)(C(=O)N[C@@H](CC(C)C)C(=O)N[C@@H](Cc2c[nH]cn2)C(=O)N[C@@H](CCCNC(=N)N)C(=O)N[C@@H](C)C(=O)N[C@@H](Cc2ccccc2)C(N)=O)NC(=O)[C@H](CCCNC(=N)N)NC(=O)[C@H](CCCNC(=N)N)NC(=O)[C@H]([C@@H](C)O)NC1=O` [S-pep2, Ac-XTRRXLBRAF-NH2] (Ac-[S5]TRR[S5]LHRAF-NH2; staple 1-5): in assay [1], the IC50 is greater than 200 µM. As to `CC(=O)N[C@@H](C)C(=O)N[C@@H](CCC(=O)O)C(=O)N[C@@]1(C)CCCC=CCCC[C@@](C)(C(=O)N[C@@H](CC(C)C)C(=O)N[C@@H](Cc2c[nH]cn2)C(=O)N[C@@H](CCCNC(=N)N)C(=O)N[C@@H](C)C(=O)N[C@@H](Cc2ccccc2)C(=O)N[C@@H](CC(=O)O)C(=O)N[C@H](C(=O)N[C@@H](CC(C)C)C(=O)N[C@@H](C)C(=O)O)[C@@H](C)O)NC(=O)[C@H](CCCNC(=N)N)NC(=O)[C@H](CCCNC(=N)N)NC(=O)[C@H]([C@@H](C)O)NC1=O` [S-pep3, Ac-AEXTRRXLHRAFDTLA] (Ac-AE[S5]TRR[S5]LHRAFDTLA-OH; staple 3-7; C-terminus assumed), the 50% effective concentration (EC50) in the assay with HSV-1 (1 h) is roughly 100 µM.

As for `CSCC[C@@H]1NC(=O)[C@H](CCCNC(=N)N)NC(=O)[C@H](CCCNC(=N)N)NC(=O)[C@@](C)(NC(C)=O)CCCC=CCCC[C@@](C)(C(=O)N[C@@H](Cc2c[nH]cn2)C(=O)N[C@@H](CCCNC(=N)N)C(=O)N[C@@H](C)C(=O)N[C@@H](Cc2ccccc2)C(=O)N[C@@H](CC(=O)O)C(=O)N[C@H](C(=O)N[C@@H](CC(C)C)C(=O)N[C@@H](C)C(=O)O)[C@@H](C)O)NC1=O` [S-pep5, Ac-XRRMXHRAFDTLA] (Ac-[S5]RRM[S5]HRAFDTLA-OH; staple 1-5), in assay [1], the IC50 was greater than 200 µM and the “IC50, µM* (HSV1 UL30+UL42)” value is on record as “failed to inhibit”. As for `CC(=O)N[C@@H](CCC(=O)O)C(=O)N[C@H](C(=O)N[C@@H](CCCNC(=N)N)C(=O)N[C@@H](CCCNC(=N)N)C(=O)N[C@@]1(C)CCCC=CCCC[C@@](C)(C(=O)N[C@@H](Cc2ccccc2)C(=O)N[C@@H](CC(=O)O)C(=O)N[C@H](C(=O)N[C@@H](CC(C)C)C(=O)N[C@@H](C)C(=O)O)[C@@H](C)O)NC(=O)[C@H](CCCNC(=N)N)NC(=O)[C@H](Cc2c[nH]cn2)NC(=O)[C@H](CC(C)C)NC1=O)[C@@H](C)O` [S-pep7, Ac-ETRRXLHRXFDTLA] (Ac-ETRR[S5]LHR[S5]FDTLA-OH; staple 5-9; C-terminus assumed), the EC50 in the assay with HSV-1 (1 h) is 35.5 µM. On the same count and under the same terms, then `CSCC[C@H](NC(=O)[C@H](CCCNC(=N)N)NC(=O)[C@H](CCCNC(=N)N)NC(=O)[C@@H](NC(=O)[C@H](CCC(=O)O)NC(C)=O)[C@@H](C)O)C(=O)N[C@@H](CC(C)C)C(=O)N[C@@H](Cc1c[nH]cn1)C(=O)N[C@@]1(C)CCCC=CCCC[C@@](C)(C(=O)N[C@@H](CC(C)C)C(=O)N[C@@H](C)C(=O)O)NC(=O)[C@H](CC(=O)O)NC(=O)[C@H](Cc2ccccc2)NC(=O)[C@H](C)NC1=O` [S-pep8, Ac-ETRRMLHXAFDXLA] (Ac-ETRRMLH[S5]AFD[S5]LA-OH; staple 8-12; C-terminus assumed), with roughly 100 µM.

B1: S-pep7 (peptide)
peptide: Ac-ETRR[S5]LHR[S5]FDTLA
modifications: staple 5-9
For B1, the “IC50, µM (HSV1 UL30+UL42); HSV-1 DNA synthesis inhibition” value (“IC50 … HSV-1 DNA synthesis inhibition” for short) in assay [2] was 5.5 µM.

B2: S-pep2 (peptide)
peptide: Ac-[S5]TRR[S5]LHRAF-NH2
modifications: staple 1-5
Consider B2, for which, in assay [2], the “IC50 … HSV-1 DNA synthesis inhibition” value is greater than 200 µM.

B3: S-pep7B (peptide)
peptide: Ac-VVTRR[S5]LHR[S5]FDTLA
modifications: staple 6-10
On to B3, for which the “IC50 … HSV-1 DNA synthesis inhibition” value in assay [2] came out at 1 µM.

B4: S-pep7C (peptide)
peptide: Ac-RTRR[S5]LHR[S5]FDTLA
modifications: staple 5-9
With B4, the “IC50 … HSV-1 DNA synthesis inhibition” value in assay [2] amounted to 1.7 µM.

B5: S-pep7A (peptide)
peptide: Ac-VTRR[S5]LHR[S5]FDTLA
modifications: staple 5-9
As for B5, the “IC50 … HSV-1 DNA synthesis inhibition” value in assay [2] was found to be 1.7 µM.

B6: S-pep8 (peptide)
peptide: Ac-ETRRMLH[S5]AFD[S5]LA
modifications: staple 8-12
In the case of B6, the “IC50 … HSV-1 DNA synthesis inhibition” value in assay [2] came to 20.7 µM.

B7: S-pep3 (peptide)
peptide: Ac-AE[S5]TRR[S5]LHRAFDTLA
modifications: staple 3-7
For the molecule B7, in assay [2], the “IC50 … HSV-1 DNA synthesis inhibition” value worked out at 12.7 µM.

B8: S-pep1 (peptide)
peptide: Ac-[S5]TRR[S5]LHRAFDTLA
modifications: staple 1-5
For B8, the “IC50 … HSV-1 DNA synthesis inhibition” value in assay [2] stood at 12 µM.

B9: S-pep7D (peptide)
peptide: Ac-RRTRR[S5]LHR[S5]FDTLA
modifications: staple 6-10
Turning to B9, the “IC50 … HSV-1 DNA synthesis inhibition” value in assay [2] came to 2 µM.

B10: S-pep5 (peptide)
peptide: Ac-[S5]RRM[S5]HRAFDTLA
modifications: staple 1-5
Consider B10, for which, in assay [2], the “IC50 … HSV-1 DNA synthesis inhibition” value is greater than 200 µM.

These data come from patent US20230235301A1, “Compounds and Methods for Treating, Ameliorating, or Preventing Herpes Ocular Keratitis” (THE TRUSTEES OF THE UNIVERSITY OF PENNSYLVANIA, priority 2020, published 2023).
